{"source": "ChEMBL document CHEMBL4118122", "about": "“Identification and biological evaluation of thiazole-based inverse agonists of RORγt” (Bioorg Med Chem Lett, 2018)", "key": {"[1]": {"target": "T1, Nuclear receptor ROR-gamma (Homo sapiens, UniProt P51449)", "T1 sequence (P51449 whole entry)": "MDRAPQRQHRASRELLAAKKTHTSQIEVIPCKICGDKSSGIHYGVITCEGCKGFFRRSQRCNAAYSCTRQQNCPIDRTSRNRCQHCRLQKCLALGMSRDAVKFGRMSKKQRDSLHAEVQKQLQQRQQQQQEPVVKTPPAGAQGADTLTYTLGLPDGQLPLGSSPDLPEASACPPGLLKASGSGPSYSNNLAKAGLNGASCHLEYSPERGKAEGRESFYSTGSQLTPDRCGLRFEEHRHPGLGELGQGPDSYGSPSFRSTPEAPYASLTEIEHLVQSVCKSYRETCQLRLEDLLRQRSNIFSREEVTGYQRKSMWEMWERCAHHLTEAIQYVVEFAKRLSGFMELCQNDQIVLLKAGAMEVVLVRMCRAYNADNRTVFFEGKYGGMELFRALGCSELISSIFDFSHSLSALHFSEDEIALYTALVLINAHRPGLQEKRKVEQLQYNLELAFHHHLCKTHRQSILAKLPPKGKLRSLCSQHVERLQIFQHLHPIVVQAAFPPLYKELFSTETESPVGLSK", "experiment": "Inverse agonist activity at RORgammat in human whole blood assessed as reduction in IL17A production"}, "[2]": {"target": "Adenosine receptor A3 (Homo sapiens) (UniProt P0DMS8)", "sequence (P0DMS8 whole entry)": "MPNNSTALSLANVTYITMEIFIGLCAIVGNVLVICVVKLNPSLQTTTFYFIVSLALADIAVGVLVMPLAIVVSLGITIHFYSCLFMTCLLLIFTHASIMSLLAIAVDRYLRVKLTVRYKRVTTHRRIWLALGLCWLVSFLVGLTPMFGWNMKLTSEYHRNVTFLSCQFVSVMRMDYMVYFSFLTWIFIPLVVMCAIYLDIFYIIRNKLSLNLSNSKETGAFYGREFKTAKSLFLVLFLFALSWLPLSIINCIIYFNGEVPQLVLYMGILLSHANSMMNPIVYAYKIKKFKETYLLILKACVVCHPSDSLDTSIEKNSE", "experiment": "Displacement of [125I]AB-MECA from human recombinant adenosine A3 receptor at 10 uM after 120 mins by scintillation counting analysis relative to control"}, "[3]": {"target": "Adrenergic receptor alpha-1 (Rattus norvegicus) (UniProt P15823+P23944+P43140)", "experiment": "Displacement of [3H]-prazosin from rat alpha1 adrenoceptor at 10 uM after 60 mins by scintillation counting analysis relative to control", "type": "protein assay"}, "[4]": {"target": "T2, Beta-1 adrenergic receptor (Homo sapiens, UniProt P08588)", "T2 sequence (P08588 whole entry, looked up)": "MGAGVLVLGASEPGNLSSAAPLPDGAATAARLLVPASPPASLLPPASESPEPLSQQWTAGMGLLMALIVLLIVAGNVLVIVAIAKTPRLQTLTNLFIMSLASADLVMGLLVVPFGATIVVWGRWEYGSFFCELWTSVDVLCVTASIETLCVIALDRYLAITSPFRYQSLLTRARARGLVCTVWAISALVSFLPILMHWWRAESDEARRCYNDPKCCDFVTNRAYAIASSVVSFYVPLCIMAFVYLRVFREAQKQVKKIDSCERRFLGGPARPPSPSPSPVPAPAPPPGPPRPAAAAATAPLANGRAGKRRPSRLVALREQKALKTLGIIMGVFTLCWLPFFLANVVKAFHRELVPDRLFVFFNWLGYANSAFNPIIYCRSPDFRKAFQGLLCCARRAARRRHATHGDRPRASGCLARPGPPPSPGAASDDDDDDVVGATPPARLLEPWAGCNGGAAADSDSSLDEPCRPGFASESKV", "experiment": "Displacement of [3H](-)CGP 12177 from human beta1 adrenoceptor at 10 uM after 60 mins by scintillation counting analysis relative to control"}, "D(1A) dopamine receptor": {"target": "D(1A) dopamine receptor (Homo sapiens, UniProt P21728)", "sequence (P21728 whole entry)": "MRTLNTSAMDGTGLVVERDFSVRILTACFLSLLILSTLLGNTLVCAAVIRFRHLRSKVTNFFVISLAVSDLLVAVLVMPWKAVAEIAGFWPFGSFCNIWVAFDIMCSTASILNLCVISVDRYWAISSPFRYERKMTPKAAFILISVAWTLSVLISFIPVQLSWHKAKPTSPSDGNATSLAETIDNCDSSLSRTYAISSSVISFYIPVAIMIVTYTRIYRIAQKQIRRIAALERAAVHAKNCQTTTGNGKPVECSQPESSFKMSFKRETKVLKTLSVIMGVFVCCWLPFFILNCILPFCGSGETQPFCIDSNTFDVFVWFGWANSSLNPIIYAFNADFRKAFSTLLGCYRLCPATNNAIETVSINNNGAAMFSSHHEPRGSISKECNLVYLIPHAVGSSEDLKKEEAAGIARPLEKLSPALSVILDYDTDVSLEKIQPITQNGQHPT", "experiment": "Displacement of [3H]-SCH 23390 from human recombinant dopamine D1 receptor at 10 uM after 60 mins by scintillation counting analysis relative to control"}, "[5]": {"target": "Galanin receptor type 2 (Homo sapiens) (UniProt O43603)", "experiment": "Displacement of [125I]-endothelin-1 from human recombinant GAL2 receptor at 10 uM after 120 mins by scintillation counting analysis relative to control"}, "[6]": {"target": "Muscarinic acetylcholine receptor M2 (Homo sapiens) (UniProt P08172)", "experiment": "Displacement of [3H]AF-DX 384 from human recombinant M2 receptor at 10 uM after 60 mins by scintillation counting analysis relative to control"}, "[7]": {"target": "Neurotensin receptor type 1 (Homo sapiens, UniProt P30989)", "experiment": "Displacement of [125I]Tyr3-neurotensin from human recombinant NTS1 receptor at 10 uM after 120 mins by scintillation counting analysis relative to control"}, "Nociceptin receptor": {"target": "Nociceptin receptor (Homo sapiens, UniProt P41146)", "sequence (P41146 whole entry)": "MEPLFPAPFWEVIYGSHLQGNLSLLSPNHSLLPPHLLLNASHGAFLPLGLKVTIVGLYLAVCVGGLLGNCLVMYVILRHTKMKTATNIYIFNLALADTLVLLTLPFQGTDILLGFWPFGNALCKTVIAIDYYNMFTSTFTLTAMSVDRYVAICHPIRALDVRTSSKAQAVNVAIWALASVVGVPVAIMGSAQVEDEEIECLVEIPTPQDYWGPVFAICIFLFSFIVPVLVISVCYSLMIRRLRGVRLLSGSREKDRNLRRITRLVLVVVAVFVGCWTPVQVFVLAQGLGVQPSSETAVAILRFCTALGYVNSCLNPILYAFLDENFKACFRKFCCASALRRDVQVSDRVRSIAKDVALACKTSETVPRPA", "experiment": "Displacement of [3H]nociceptin from human recombinant NOP receptor at 10 uM after 60 mins by scintillation counting analysis relative to control"}, "[8]": {"target": "5-hydroxytryptamine receptor 5A (Homo sapiens, UniProt P47898)", "sequence (P47898 whole entry)": "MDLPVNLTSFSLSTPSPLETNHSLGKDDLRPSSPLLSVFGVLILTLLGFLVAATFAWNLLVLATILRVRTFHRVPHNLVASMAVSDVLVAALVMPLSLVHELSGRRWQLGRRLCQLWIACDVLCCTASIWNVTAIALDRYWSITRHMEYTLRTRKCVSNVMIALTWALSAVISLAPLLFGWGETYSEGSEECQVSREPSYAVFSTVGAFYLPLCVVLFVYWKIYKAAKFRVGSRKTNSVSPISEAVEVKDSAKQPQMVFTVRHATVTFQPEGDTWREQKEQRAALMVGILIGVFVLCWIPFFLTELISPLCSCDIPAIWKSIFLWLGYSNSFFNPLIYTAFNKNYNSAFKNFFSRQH", "experiment": "Displacement of [3H]LSD from human recombinant 5-HT5a receptor at 10 uM after 120 mins by scintillation counting analysis relative to control"}, "[9]": {"target": "T2, Beta-1 adrenergic receptor", "experiment": "Displacement of [3H](-)CGP 12177 from human beta1 adrenoceptor at 1 uM after 60 mins by scintillation counting analysis relative to control"}, "[10]": {"target": "Endothelin-1 receptor (Homo sapiens) (UniProt P25101)", "sequence (P25101 whole entry)": "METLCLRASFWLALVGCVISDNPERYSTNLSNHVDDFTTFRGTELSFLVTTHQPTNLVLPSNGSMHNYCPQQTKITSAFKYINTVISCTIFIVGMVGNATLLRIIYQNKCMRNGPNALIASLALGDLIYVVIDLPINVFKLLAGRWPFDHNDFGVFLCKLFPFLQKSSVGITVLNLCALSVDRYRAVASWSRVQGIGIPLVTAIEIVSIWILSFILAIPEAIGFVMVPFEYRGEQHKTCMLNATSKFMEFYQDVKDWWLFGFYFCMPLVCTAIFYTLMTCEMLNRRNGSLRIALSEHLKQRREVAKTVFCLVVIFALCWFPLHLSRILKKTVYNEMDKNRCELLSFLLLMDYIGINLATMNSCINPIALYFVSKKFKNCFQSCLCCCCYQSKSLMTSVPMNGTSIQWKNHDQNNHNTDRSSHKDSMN", "experiment": "Displacement of [125I]-endothelin-1 from human recombinant ETA receptor at 1 uM after 120 mins by scintillation counting analysis relative to control"}, "[11]": {"target": "Muscarinic acetylcholine receptor M1 (Homo sapiens) (UniProt P11229)", "experiment": "Displacement of […] from human recombinant M1 receptor at 1 uM after 60 mins by scintillation counting analysis relative to control"}, "Vasopressin V1a receptor": {"target": "Vasopressin V1a receptor (Homo sapiens, UniProt P37288)", "sequence (P37288 whole entry, looked up)": "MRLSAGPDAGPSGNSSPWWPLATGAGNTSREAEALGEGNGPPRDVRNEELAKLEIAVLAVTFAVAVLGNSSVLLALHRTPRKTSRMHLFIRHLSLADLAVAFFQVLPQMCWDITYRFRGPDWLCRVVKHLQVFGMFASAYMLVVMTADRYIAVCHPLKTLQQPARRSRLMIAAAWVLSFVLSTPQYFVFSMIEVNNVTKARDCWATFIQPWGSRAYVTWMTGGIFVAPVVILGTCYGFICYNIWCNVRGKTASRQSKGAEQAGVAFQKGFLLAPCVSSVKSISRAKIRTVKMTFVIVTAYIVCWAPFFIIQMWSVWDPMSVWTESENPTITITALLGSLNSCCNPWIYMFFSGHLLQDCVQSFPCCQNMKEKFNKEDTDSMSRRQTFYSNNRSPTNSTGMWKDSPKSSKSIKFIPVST", "experiment": "Displacement of [3H]AVP from human recombinant V1a receptor at 1 uM after 60 mins by scintillation counting analysis relative to control"}, "Adenosine receptor A2a": {"target": "Adenosine receptor A2a (Homo sapiens, UniProt P29274)", "experiment": "Displacement of [3H]-CGS 21680 from human recombinant adenosine A2A receptor after 120 mins by scintillation counting analysis"}, "Endothelin-1 receptor": {"target": "Endothelin-1 receptor (Homo sapiens, UniProt P25101)", "sequence (P25101 whole entry)": "as the sequence (P25101 whole entry) above", "experiment": "Displacement of [125I]-endothelin-1 from human recombinant ETA receptor after 120 mins by scintillation counting analysis"}, "Histamine H1 receptor": {"target": "Histamine H1 receptor (Homo sapiens, UniProt P35367)", "experiment": "Displacement of [3H]pyrilamine from human recombinant histamine H1 receptor after 60 mins by scintillation counting analysis"}, "Histamine H2 receptor": {"target": "Histamine H2 receptor (Homo sapiens, UniProt P25021)", "experiment": "Displacement of [125I]APT from human recombinant histamine H2 receptor after 120 mins by scintillation counting analysis"}, "[12]": {"target": "Neuropeptide Y receptor type 2 (Homo sapiens, UniProt P49146)", "sequence (P49146 whole entry)": "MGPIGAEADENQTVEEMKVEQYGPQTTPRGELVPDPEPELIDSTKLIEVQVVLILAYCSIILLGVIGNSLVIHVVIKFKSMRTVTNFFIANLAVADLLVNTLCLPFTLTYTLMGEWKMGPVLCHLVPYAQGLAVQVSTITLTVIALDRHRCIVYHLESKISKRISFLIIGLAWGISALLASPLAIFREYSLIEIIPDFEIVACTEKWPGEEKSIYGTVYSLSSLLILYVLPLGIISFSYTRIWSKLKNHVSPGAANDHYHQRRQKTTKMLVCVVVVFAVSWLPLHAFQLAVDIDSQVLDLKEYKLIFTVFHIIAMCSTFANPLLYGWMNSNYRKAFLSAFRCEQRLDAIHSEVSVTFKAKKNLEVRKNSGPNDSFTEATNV", "experiment": "Displacement of [125I]peptide YY from human Y2 receptor after 120 mins by scintillation counting analysis"}, "[13]": {"target": "Dual specificity protein kinase CLK2 (Homo sapiens) (UniProt P49760)", "experiment": "Inhibition of recombinant GST-tagged human CLK2 catalytic domain (137 to 498 residues) expressed in baculovirus expression system at 10 uM in presence of ATP relative to control"}, "[14]": {"target": "Casein kinase I isoform epsilon (Homo sapiens) (UniProt P49674)", "sequence (P49674 whole entry, looked up, canonical isoform)": "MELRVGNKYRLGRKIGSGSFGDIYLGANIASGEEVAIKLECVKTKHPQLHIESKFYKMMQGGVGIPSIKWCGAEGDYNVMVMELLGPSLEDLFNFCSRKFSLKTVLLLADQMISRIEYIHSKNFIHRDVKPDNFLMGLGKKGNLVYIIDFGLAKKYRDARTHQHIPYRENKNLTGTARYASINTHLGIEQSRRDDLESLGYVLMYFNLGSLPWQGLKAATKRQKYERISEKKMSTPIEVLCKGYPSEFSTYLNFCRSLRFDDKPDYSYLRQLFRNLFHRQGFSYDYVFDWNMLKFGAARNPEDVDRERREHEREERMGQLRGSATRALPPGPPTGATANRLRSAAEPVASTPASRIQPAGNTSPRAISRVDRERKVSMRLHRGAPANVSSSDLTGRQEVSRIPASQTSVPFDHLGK", "experiment": "Inhibition of CK1epsilon (unknown origin) at 10 uM in presence of ATP relative to control"}, "[15]": {"target": "Death-associated protein kinase 3 (Homo sapiens) (UniProt O43293)", "sequence (O43293 whole entry, looked up)": "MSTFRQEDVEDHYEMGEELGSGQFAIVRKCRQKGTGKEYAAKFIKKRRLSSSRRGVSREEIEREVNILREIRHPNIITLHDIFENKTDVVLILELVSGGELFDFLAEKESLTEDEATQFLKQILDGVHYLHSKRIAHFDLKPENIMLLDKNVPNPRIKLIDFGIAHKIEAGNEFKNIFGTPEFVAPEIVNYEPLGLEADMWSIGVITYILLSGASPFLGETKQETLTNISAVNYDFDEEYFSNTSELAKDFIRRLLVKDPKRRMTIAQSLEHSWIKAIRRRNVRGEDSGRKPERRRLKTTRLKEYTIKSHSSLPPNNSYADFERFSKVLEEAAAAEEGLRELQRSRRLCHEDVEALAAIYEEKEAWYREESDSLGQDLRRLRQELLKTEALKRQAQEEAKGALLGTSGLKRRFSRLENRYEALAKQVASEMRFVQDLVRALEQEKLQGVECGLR", "experiment": "Inhibition of recombinant full length GST-tagged human ZIPK expressed in baculovirus expression system at 10 uM in presence of ATP relative to control"}, "[16]": {"target": "Inhibitor of nuclear factor kappa-B kinase subunit beta (Homo sapiens) (UniProt O14920)", "experiment": "Inhibition of recombinant full length GST-tagged human IKKbeta expressed in baculovirus expression system at 10 uM in presence of ATP relative to control"}, "[17]": {"experiment": "Thermodynamic solubility of the compound in fasted state simulated intestinal […] after 2 to 5 days by UV-HPLC analysis", "type": "physicochemical", "conditions": "read-out: Therm_solubility"}, "[18]": {"experiment": "Half life in human microsomes", "type": "ADME, Microsome"}, "Cytochrome P450 2C19": {"target": "Cytochrome P450 2C19 (Homo sapiens, UniProt P33261)", "experiment": "Inhibition of CYP2C19 (unknown origin)", "type": "ADME"}, "Cytochrome P450 2C9": {"target": "Cytochrome P450 2C9 (Homo sapiens, UniProt P11712)", "sequence (P11712 whole entry)": "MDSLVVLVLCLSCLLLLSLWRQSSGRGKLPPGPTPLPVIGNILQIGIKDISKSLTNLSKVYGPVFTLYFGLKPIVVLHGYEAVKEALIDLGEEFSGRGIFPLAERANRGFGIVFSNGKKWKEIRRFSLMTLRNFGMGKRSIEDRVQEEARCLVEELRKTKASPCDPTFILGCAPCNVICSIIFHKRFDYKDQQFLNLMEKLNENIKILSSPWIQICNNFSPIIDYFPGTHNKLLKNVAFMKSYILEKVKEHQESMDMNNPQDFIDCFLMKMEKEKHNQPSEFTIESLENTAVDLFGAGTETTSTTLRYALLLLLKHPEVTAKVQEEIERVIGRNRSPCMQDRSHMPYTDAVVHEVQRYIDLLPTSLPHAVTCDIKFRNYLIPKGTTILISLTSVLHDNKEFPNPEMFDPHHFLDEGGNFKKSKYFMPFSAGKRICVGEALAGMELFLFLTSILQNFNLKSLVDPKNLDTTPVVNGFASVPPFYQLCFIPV", "experiment": "Inhibition of CYP2C9 (unknown origin)", "type": "ADME"}, "[19]": {"target": "Rho-associated protein kinase 1 (Homo sapiens) (UniProt Q13464)", "experiment": "Inhibition of recombinant N-terminal GST-tagged human ROCK1 catalytic domain (1 to 535 residues) expressed in baculovirus expression system at 10 uM in presence of ATP relative to control"}}, "data": [{"smiles": "CC(C)(C)NS(=O)(=O)c1ccc(-c2sc(C(=O)N[C@H]3C[C@H](C(=O)O)C3)nc2CC2CCCCC2)c2ccccc12", "values": [{"measurement": "EC50", "setting": "[1]", "value": 82, "unit": "nM"}, {"measurement": "inhibition", "setting": "[2]", "value": 81, "unit": "%"}, {"measurement": "inhibition", "setting": "[3]", "value": "< 10", "unit": "%"}, {"measurement": "inhibition", "setting": "[4]", "value": 11, "unit": "%"}, {"measurement": "inhibition", "setting": "D(1A) dopamine receptor", "value": 12, "unit": "%"}, {"measurement": "inhibition", "setting": "[5]", "value": "< 10", "unit": "%"}, {"measurement": "inhibition", "setting": "[6]", "value": 12, "unit": "%"}, {"measurement": "inhibition", "setting": "[7]", "value": "< 10", "unit": "%"}, {"measurement": "inhibition", "setting": "Nociceptin receptor", "value": "< 10", "unit": "%"}, {"measurement": "inhibition", "setting": "[8]", "value": 85, "unit": "%"}, {"measurement": "inhibition", "setting": "[9]", "value": "< 10", "unit": "%"}, {"measurement": "inhibition", "setting": "[10]", "value": "< 10", "unit": "%"}, {"measurement": "inhibition", "setting": "[11]", "value": "< 10", "unit": "%"}, {"measurement": "inhibition", "setting": "Vasopressin V1a receptor", "value": "< 10", "unit": "%"}, {"measurement": "IC50", "setting": "Adenosine receptor A2a", "value": 9.2, "unit": "nM"}, {"measurement": "IC50", "setting": "Endothelin-1 receptor", "value": 0.023, "unit": "nM"}, {"measurement": "IC50", "setting": "Histamine H1 receptor", "value": 1.7, "unit": "nM"}, {"measurement": "IC50", "setting": "Histamine H2 receptor", "value": 142, "unit": "nM"}, {"measurement": "IC50", "setting": "[12]", "value": 0.28, "unit": "nM"}, {"measurement": "inhibition", "setting": "[13]", "value": -1, "unit": "%"}, {"measurement": "inhibition", "setting": "[14]", "value": 4, "unit": "%"}, {"measurement": "inhibition", "setting": "[15]", "value": -5, "unit": "%"}, {"measurement": "inhibition", "setting": "[16]", "value": -4, "unit": "%"}, {"measurement": "solubility thermodynamic", "setting": "[17]", "value": "> 400", "unit": "µM"}, {"measurement": "half-life", "setting": "[18]", "value": 1.25, "unit": "h"}, {"measurement": "INH", "setting": "Cytochrome P450 2C19", "value": "> 10", "unit": "µM"}, {"measurement": "INH", "setting": "Cytochrome P450 2C9", "value": 9.9, "unit": "µM"}, {"measurement": "inhibition", "setting": "[19]", "value": -10, "unit": "%"}]}]}
